Experiment: molar heat capacity at constant pressure
Conditions: 101.33 kPa, Crystal, Small (less than 1 g) adiabatic calorimetry

O=S(=O)([O-])[O-].[Cu+2].[Cu+2].[Cu+2].[OH-].[OH-].[OH-].[OH-] [copper(II) tetrahydroxide sulfate]
Conditions	molar heat capacity at constant pressure [J/K/mol]
144.68 K	141.3
145.22 K	142.14
147.87 K	144.34
148.42 K	144.91
150 K	146.3
151.08 K	147.15
151.63 K	147.79
153.75 K	149.17
154.85 K	150.6
155.89 K	151.01
158.03 K	152.89
158.08 K	153.14
160 K	154.8
160.17 K	154.93
161.31 K	155.76
162.32 K	156.42
164.47 K	158.12
164.54 K	158.38
166.62 K	159.83
167.79 K	161.29
168.77 K	161.72
170 K	162.9
170.92 K	163.42
171.04 K	163.63
173.08 K	165.15
174.3 K	166.52
175.23 K	166.71
177.4 K	168.6
177.57 K	168.98
179.56 K	169.93
180 K	170.9
180.86 K	171.6
181.72 K	171.53
183.88 K	173.5
184.14 K	174.07
186.04 K	174.91
187.43 K	176.58
188.2 K	176.89
190 K	178.5
190.37 K	178.59
190.73 K	179
192.53 K	179.84
194.03 K	181.5
194.69 K	181.95
196.86 K	183.62
197.33 K	184.05
199.04 K	185.07
200 K	185.9
200.64 K	186.38
201.21 K	186.11
203.39 K	188.25
203.96 K	188.7
205.57 K	189.66
207.29 K	191
207.76 K	190.53
209.94 K	192.52
210 K	192.8
210.62 K	193.2
212.16 K	193.78
213.96 K	195.29
214.35 K	195.47
216.54 K	197.08
217.3 K	197.61
218.74 K	198.53
220 K	199.5
220.63 K	199.85
220.93 K	199.41
223.12 K	200.77
223.97 K	202.1
225.3 K	202.74
227.29 K	204.34
227.48 K	203.96
229.65 K	205.76
230 K	206.1
230.62 K	206.56
231.82 K	207.32
233.94 K	208.88
233.99 K	208.88
236.16 K	210.12
237.24 K	210.9
238.32 K	211.49
240 K	212.7
240.47 K	213.05
240.54 K	213.1
242.63 K	214.29
243.84 K	215.04
244.78 K	215.47
246.91 K	216.48
247.12 K	217.09
249.05 K	217.96
250 K	218.9
250.39 K	219.06
251.18 K	219.63
253.31 K	221.05
253.64 K	221.26
255.43 K	222.37
256.89 K	223.31
257.55 K	223.64
259.67 K	224.86
260 K	225.1
260.12 K	225.23
261.78 K	226.04
263.34 K	227.07
263.89 K	227.38
265.99 K	228.04
266.52 K	229.07
268.1 K	229.52
269.68 K	230.88
270 K	231.1
270.18 K	231.01
272.26 K	232.16
272.81 K	232.32
273.15 K	232.9
274.34 K	233.42
275.92 K	234.35
276.41 K	234
278.48 K	235.58
278.99 K	236.21
280 K	236.7
280.47 K	237.16
282.03 K	237.88
282.51 K	238.07
284.55 K	239.1
284.97 K	239.95
286.57 K	240.28
287.96 K	241.21
288.59 K	241.63
290 K	242.2
290.6 K	242.66
290.92 K	242.32
292.61 K	243.54
293.88 K	243.77
294.6 K	244.61
296.58 K	245.63
296.81 K	245.8
298.15 K	246.6
298.56 K	246.66
299.68 K	247.51
300 K	247.6
300.53 K	247.64
302.49 K	248.72
302.54 K	249.04
304.44 K	249.67
305.37 K	250.52
306.39 K	250.6
308.18 K	251.84
308.34 K	251.49
310 K	252.8
310.27 K	252.37
310.97 K	253.24
312.09 K	253.75
313.74 K	254.51
314.01 K	254.23
315.94 K	255.03
316.5 K	255.82
317.86 K	255.92
319.23 K	257.03
319.77 K	256.66
320 K	257.4
321.68 K	257.57
321.95 K	258.16
323.58 K	258.37

Reference: the NIST ThermoML archive (doi:10.1021/je400130b)
